This note sets out measurements from patent publication US20230310330A1, “PEPTIDIC OLIGOMERS AND METHODS OF USING THE SAME” (BIOVENTURES, LLC, priority 2022, published 2023).

Where two headings read alike, the source gives them in different places.

For data set [1], the system named is mouse 4T1 breast cancer cells.
Protocol: Cells were incubated with varying concentrations for 48 hours, followed by CCK8 reagent. The absorbance at 450 nm was recorded.
Biocompatibility of the peptidic oligomers was characterized in a toxicity assay of the empty beta and gamma chains performed with mouse 4T1 breast cancer cells (FIG. 4). […] Cells were incubated with varying concentrations for 48 hours, followed by CCK8 reagent. The absorbance at 450 nm was recorded.
The next data set deals with vacuolar ATPase. The experiment in a line: Bafilomycin A1 block of FITC-labeled CPP translocation, flow cytometry. Type of data set: cell-based. The source says:
FIG. 15: Bafilomycin Al blocks CPP translocation. (A) FITC-labeled B6 and G6 are easily detected by flow cytometry.
Vacuolar ATPase aids in the transport to the interior of acidic organelles and BafA1 efficiently neutralizes the luminal pH, inhibits acidic hydrolases, and impairs the fusion among acidic organelles.
(Flow cytometry measures light scatter and fluorescence of single cells or particles in a stream.)

The test system of another data set is 4T1 breast cancer cells. The experiment in a line: In vitro cell viability assay, CellTiter-Glo, 72 hours. Type of data set: cell-based, mouse. Particulars: 4T1 cells. As to the method:
The assay was run for 72 hours with the CellTiter-Glo assay to determine cell viability.
On the technique in general: Cellular ATP, detected with luciferase, serves as a proxy for viable cell number.

For the compound `CC(C)(C)OC(=O)N[C@@H](CNC(=O)[C@H](CNC(=O)[C@H](CNC(=O)[C@H](CNC(=O)[C@H](CNC(=O)[C@H](CN)NC(=O)OC(C)(C)C)NC(=O)OC(C)(C)C)NC(=O)OC(C)(C)C)NC(=O)OC(C)(C)C)NC(=O)OC(C)(C)C)C(=O)O` [B6], the “cellular toxicity (number of viable cells)” value in data set [1] was “do not display cellular toxicity”. Take `CO/C1=C\C(C)=C\[C@@H](C)[C@@H](O)[C@@H](C)C/C(C)=C/C=C/[C@H](OC)[C@@H]([C@@H](C)[C@@H](O)[C@H](C)[C@@]2(O)C[C@@H](O)[C@H](C)[C@@H](C(C)C)O2)OC1=O` [Bafilomycin A1]: the “effect on FITC-labeled CPP binding and translocation (FITC signal)” value with vacuolar ATPase is “blocked FITC-labeled CPP”; with vacuolar ATPase (listed as BafA1) it was “blocks B6-FITC binding and translocation”. Turning to `CC(C)(C)OC(=O)N[C@@H](CCNC(=O)[C@H](CCNC(=O)[C@H](CCNC(=O)[C@H](CCNC(=O)[C@H](CCNC(=O)[C@H](CCN)NC(=O)OC(C)(C)C)NC(=O)OC(C)(C)C)NC(=O)OC(C)(C)C)NC(=O)OC(C)(C)C)NC(=O)OC(C)(C)C)C(=O)O` [G6], the “cellular toxicity (number of viable cells)” value in data set [1] is listed as “do not display cellular toxicity”.

On to `C[S+]([O-])CCCCN=C=S` (centres unmarked) [sulforaphane, D, L sulforaphane], for which the “concentration showing significant activity” value in the data set on 4T1 breast cancer cells is 10 mM.
